The values below come from US11181447B2, “Apparatus and method for determination of the fine particle dose of a powder inhalation formulation” (NANOPHARM LIMITED, priority 2016, dated 2021).

This data set in a line: Paddle dissolution test (USP 711) of the aerosol dose collected on a filter in the apparatus of the invention. Conditions: drug loading 50-500 μg, surface coverage 3.89-38.92 μg/cm^2; 1, 2, 5 and 10 actuations; DPI and MDI. It counts as physicochemical. The source says:
In accordance with one embodiment of the invention, collected particles are subjected to a dissolution test. Dissolution tests are widely practised in the art and the selection of suitable dissolution media and methods for particles collected from a given drug formulation are a routine matter for those skilled in the art. One such test, which may be expediently used, is the paddle dissolution test (US Pharmocopeial Convention 2011, 711, Dissolution, Paddle Apparatus). Illustrative commonly used dissolution media include e.g. phosphate buffered saline (PBS) solution either with or without the addition of a surfactant (e.g. Tween 20, Tween 80, SDS etc.). The solution can be chemically analysed, for example by HPLC, to determine the mass collected.
Collection of the samples of FIGS. 7A and 7B was accomplished in an apparatus according to FIG. 4 in which a glass microfibre filter (Pall Corporation, A/E filter) having a nominal filter pore size of 1 μm was used. The reference scale on each image of FIGS. 7A and 7B corresponds to 10 μm.
In each run, after the relevant number of doses had been delivered into the device, the filter was removed and the collected mass dissolved in phosphate buffered saline (PBS) solution using the paddle dissolution method (USP 711, 2011) and chemically analysed by HPLC to determine the mass collected. […]

Take `CCC(=O)O[C@]1(C(=O)SCF)[C@H](C)C[C@H]2[C@@H]3C[C@H](F)C4=CC(=O)C=C[C@]4(C)[C@@]3(F)[C@@H](O)C[C@@]21C` [fluticasone propionate]: the “dependence of dissolution release profiles on drug loading” value is “independent of drug loading”.
